Laboratory results taken from the NIST ThermoML archive (doi:10.1021/je101130e).

Tests used:
[1] = mn = molality of the nth substance listed, in mol/kg; settings: 298.15 K, 101 kPa, Liquid, Vibrating tube method
[2] = cn = amount concentration of the nth substance listed, in mol/dm3; settings: 101 kPa, Liquid, Alternating current cell with electrodes

CCOS(=O)(=O)[O-].CCn1cc[n+](C)c1 [1-ethyl-3-methylimidazolium ethyl sulfate] + CC#N
[1]
Settings | mass density [kg/m3]
m1 = 0.006546 | 777.183
m1 = 0.1445 | 788.755

molar conductivity [S·m2/mol], [2]
Settings | 273.15 K | 278.15 K | 283.15 K | 288.15 K | 293.15 K | 298.15 K | 303.15 K | 308.15 K | 313.15 K
c1 = 0.3706 | 0.01282 | 0.01356 | 0.014309 | 0.015072 | 0.01584 | 0.01663 | 0.017423 | 0.018226 | 0.019045
c1 = 0.7493 | 0.01255 | 0.01327 | 0.014004 | 0.01475 | 0.0155 | 0.016262 | 0.01704 | 0.01782 | 0.01862
c1 = 1.176 | 0.012313 | 0.013021 | 0.01374 | 0.01447 | 0.015211 | 0.01596 | 0.01672 | 0.017492 | 0.018273
c1 = 1.698 | 0.012085 | 0.01278 | 0.013489 | 0.014207 | 0.01493 | 0.01567 | 0.016414 | 0.017171 | 0.01794
c1 = 2.185 | 0.01189 | 0.01258 | 0.013276 | 0.01398 | 0.0147 | 0.01542 | 0.016154 | 0.0169 | 0.01765
c1 = 2.695 | 0.01172 | 0.012392 | 0.013078 | 0.01377 | 0.01448 | 0.01519 | 0.01591 | 0.01664 | 0.017386
c1 = 3.269 | 0.01154 | 0.012206 | 0.01288 | 0.01357 | 0.014261 | 0.01496 | 0.01567 | 0.016396 | 0.017125
c1 = 3.882 | 0.011371 | 0.012029 | 0.0127 | 0.01337 | 0.014054 | 0.01475 | 0.015446 | 0.016155 | 0.01687
c1 = 4.671 | 0.01117 | 0.01182 | 0.01247 | 0.013136 | 0.01381 | 0.01449 | 0.015177 | 0.01588 | 0.01658
c1 = 5.374 | 0.011016 | 0.01165 | 0.0123 | 0.01295 | 0.01362 | 0.014287 | 0.01497 | 0.01566 | 0.01635
c1 = 5.987 | 0.01089 | 0.01152 | 0.012165 | 0.01281 | 0.01347 | 0.014134 | 0.0148 | 0.01549 | 0.016173
c1 = 6.546 | 0.01079 | 0.011417 | 0.012051 | 0.01269 | 0.013343 | 0.014 | 0.01467 | 0.015338 | 0.016021

CCOS(=O)(=O)[O-].CCn1cc[n+](C)c1 [1-ethyl-3-methylimidazolium ethyl sulfate] + O
[1]
Settings | mass density [kg/m3]
m1 = 0.005086 | 997.281
m1 = 0.06934 | 1000.11

molar conductivity [S·m2/mol], [2]
Settings | c1 = 0.6368 | c1 = 1.07 | c1 = 1.527 | c1 = 1.991 | c1 = 2.48 | c1 = 3.114 | c1 = 3.767 | c1 = 4.385 | c1 = 5.086
278.15 K | 0.00496 | 0.0049391 | 0.0049163 | 0.004892 | 0.004877 | 0.0048486 | 0.0048261 | 0.00479 | 0.004783
283.15 K | 0.0057155 | 0.00569 | 0.005664 | 0.0056374 | 0.0056159 | 0.005585 | 0.005559 | 0.0055336 | 0.0055088
288.15 K | 0.0065118 | 0.00648 | 0.0064496 | 0.0064206 | 0.006395 | 0.00636 | 0.0063311 | 0.0063021 | 0.006274
293.15 K | 0.0073408 | 0.0073039 | 0.007271 | 0.0072366 | 0.0072073 | 0.007169 | 0.007135 | 0.0071023 | 0.007071
298.15 K | 0.0082055 | 0.008163 | 0.008125 | 0.008088 | 0.008054 | 0.0080112 | 0.007974 | 0.0079372 | 0.0079028
303.15 K | 0.009098 | 0.009052 | 0.0090088 | 0.008967 | 0.00893 | 0.008882 | 0.0088395 | 0.008799 | 0.008761
308.15 K | 0.010022 | 0.00997 | 0.0099213 | 0.009875 | 0.0098348 | 0.009782 | 0.0097357 | 0.009689 | 0.0096453
313.15 K | 0.01096 | 0.01092 | 0.01086 | 0.01081 | 0.01076 | 0.01071 | 0.01066 | 0.01061 | 0.01056
